Measured values published in PMC7413254 (Nature Communications, 2020).
Where two headings read alike, the source gives them in different places.

Columns and labels:
non-expressing oocytes [1] = test: cells; format: cell-based, Xenopus laevis; details: Xenopus laevis, Oocyte
Procedure, shortened: (§1)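 Assay buffer ND96 (10 mM MES, 10 mM Tris-base) held at pH 5.5 to mimic vacuole lumen; uptake measured inward from this acidic medium over 1.5 h at 27.5 °C.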

PfCRT^3D7 [2] = target: T1, PfCRT^3D7 (Plasmodium falciparum, UniProt Q8IBZ9); test: cell-based; format: cell-based; details: total [3H]CQ transport; for inhibition at 500 µM: [test solute] = 0.5 mM; for inhibition at 1000 µM: [test solute] = 1 mM; for inhibition at 2000 µM: [test solute] = 2 mM
T1 sequence (Q8IBZ9 59-398): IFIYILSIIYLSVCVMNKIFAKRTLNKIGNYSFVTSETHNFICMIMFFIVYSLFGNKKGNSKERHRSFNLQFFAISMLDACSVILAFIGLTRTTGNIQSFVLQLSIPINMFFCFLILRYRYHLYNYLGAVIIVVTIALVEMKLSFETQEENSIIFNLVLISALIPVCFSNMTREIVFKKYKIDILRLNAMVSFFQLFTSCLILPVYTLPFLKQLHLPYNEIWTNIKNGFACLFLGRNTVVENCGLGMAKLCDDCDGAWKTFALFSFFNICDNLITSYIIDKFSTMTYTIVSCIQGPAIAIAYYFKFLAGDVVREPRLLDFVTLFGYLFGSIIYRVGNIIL
Procedure, shortened: as §1

PfCRT^Dd2 [3] = target: T2, PfCRT^Dd2 (Plasmodium falciparum, UniProt Q9N623, A220S/I356T/K76T/M74I/N326S/N75E/Q271E/R371I); test: [3H]CQ uptake into Xenopus oocytes, cis-inhibition by unlabelled solute; format: cell-based
T2 sequence (Q9N623 whole entry A220S/I356T/K76T/M74I/N326S/N75E/Q271E/R371I): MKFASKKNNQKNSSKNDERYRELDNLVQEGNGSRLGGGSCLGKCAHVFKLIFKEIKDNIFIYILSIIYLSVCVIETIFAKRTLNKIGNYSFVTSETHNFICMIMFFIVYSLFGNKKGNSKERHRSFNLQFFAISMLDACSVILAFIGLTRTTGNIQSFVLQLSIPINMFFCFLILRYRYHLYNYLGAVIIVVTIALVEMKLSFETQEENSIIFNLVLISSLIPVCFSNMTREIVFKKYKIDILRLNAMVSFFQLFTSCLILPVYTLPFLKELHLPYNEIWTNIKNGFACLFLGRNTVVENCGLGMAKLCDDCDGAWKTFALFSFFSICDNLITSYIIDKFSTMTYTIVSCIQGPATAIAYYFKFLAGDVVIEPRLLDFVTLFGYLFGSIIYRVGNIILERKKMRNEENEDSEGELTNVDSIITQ
Procedure, shortened: as §1

PfCRT^Ecu1110 [4] = target: T3, PfCRT^Ecu1110 (Plasmodium falciparum, UniProt Q9N623, A220S/I356L/K76T/N326D); test: as above; format: cell-based
T3 sequence (Q9N623 whole entry A220S/I356L/K76T/N326D): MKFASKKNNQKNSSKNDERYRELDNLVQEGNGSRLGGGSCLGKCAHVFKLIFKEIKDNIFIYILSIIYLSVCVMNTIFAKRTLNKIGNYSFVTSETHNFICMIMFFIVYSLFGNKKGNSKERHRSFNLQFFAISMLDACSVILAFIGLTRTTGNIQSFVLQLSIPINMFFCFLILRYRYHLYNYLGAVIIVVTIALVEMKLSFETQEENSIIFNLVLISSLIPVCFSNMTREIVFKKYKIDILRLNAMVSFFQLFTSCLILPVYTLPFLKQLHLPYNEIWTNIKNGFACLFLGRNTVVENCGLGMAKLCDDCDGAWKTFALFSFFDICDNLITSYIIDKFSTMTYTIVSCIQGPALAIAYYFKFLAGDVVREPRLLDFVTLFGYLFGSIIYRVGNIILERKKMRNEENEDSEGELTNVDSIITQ
Procedure, shortened: as §1

non-expressing oocytes [5] = format: cell-based, Xenopus laevis; details: total [3H]CQ transport; for Uptake of [3H]CQ (% non-expressing oocyte control), trans-stimulation: non-expressing oocytes, normalised to the oocyte type control; for Uptake of [3H]CQ (% PfCRTDd2 control), trans-stimulation, non-expressing oocytes: mean ± SEM, SEM
Procedure, shortened: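 Oocytes (ten per treatment, ≥4 independent frogs/days) were preloaded by injecting VF-6 in 25 nL ND96 at pH 5.0, 5.5, 6.0 or 7.0, or Na^+-free choline buffer, then uptake run 1.5 h, 27.5 °C, ND96 pH 5.5 by default. Internal concentrations assumed ~400 nL oocyte volume.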

PfCRT^3D7 [6] = target: T1, PfCRT^3D7; test: cell-based; format: cell-based
Procedure, shortened: (§2)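 Transport measured in Xenopus oocytes expressing the transporters, 1.5 h at 27.5 °C in ND96 pH 5.5 unless noted. For trans-stimulation, VF-6 injected in 25 nL ND96 at pH 5.0–7.0 or Na^+-free (choline) buffer; intracellular levels based on ~400 nL oocyte volume. Ten oocytes per treatment, ≥4 experiments.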

PfCRT^Dd2 [7] = target: T2, PfCRT^Dd2; test: cell-based; format: cell-based; details: […]; for activity at 45000 µM: [test solute]i = 45 mM (30 mM for some solutes due to solubility)
Procedure, shortened: as §2

PfCRT^Ecu1110 [8] = target: T3, PfCRT^Ecu1110; test: cell-based; format: cell-based; details: […]
Procedure, shortened: as §2

PfNT1 = target: T4, PfNT1 (Plasmodium falciparum, UniProt Q8IDM6); test: cell-based; format: cell-based; details: for activity at 5000 µM: total [3H]CQ transport
T4 construct: expressed in transfected cells; host or cells: Xenopus laevis oocytes (stage V-VI), cRNA-injected
T4 sequence (Q8IDM6 whole entry): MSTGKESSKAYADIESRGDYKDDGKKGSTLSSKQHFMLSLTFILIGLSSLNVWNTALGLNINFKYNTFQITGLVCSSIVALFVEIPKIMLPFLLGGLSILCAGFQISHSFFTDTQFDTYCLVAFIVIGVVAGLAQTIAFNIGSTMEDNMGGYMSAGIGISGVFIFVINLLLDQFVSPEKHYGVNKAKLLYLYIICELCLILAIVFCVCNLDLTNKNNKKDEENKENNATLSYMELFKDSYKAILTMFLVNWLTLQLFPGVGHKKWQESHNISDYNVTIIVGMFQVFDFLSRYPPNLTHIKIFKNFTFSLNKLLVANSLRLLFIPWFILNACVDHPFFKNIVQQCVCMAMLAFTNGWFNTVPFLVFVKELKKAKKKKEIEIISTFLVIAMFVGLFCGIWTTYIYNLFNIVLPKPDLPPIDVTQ
Procedure, shortened: as §2

PfCRT [9] = test: Influx of VF-6 via PfCRT into the oocyte, solutes tested as potential co-substrates; format: cell-based, Plasmodium falciparum; parameters: key: X: Compounds that have been tested as potential co-substrates but are not required for influx of VF-6 via PfCRT into the oocyte; details: X marks the solute
PfCRT [10] = test: Test of solutes as potential co-substrates for influx of VF-6 via PfCRT into the oocyte; format: cell-based, Plasmodium falciparum; parameters: key: X: Compounds that have been tested as potential co-substrates but are not required for influx of VF-6 via PfCRT into the oocyte; details: X = tested
[11] = read-out: Uptake of [3H]CQ (% PfCRTDd2 control), cis-inhibition, non-expressing oocytes, SEM
[12] = read-out: Uptake of [3H]CQ (% non-expressing oocyte control), cis-inhibition
[13] = PfCRT3D7 oocytes, normalised to the oocyte type control, read-out: Uptake of [3H]CQ (% PfCRT3D7 control), cis-inhibition
[14] = mean ± SEM, SEM, read-out: Uptake of [3H]CQ (% PfCRTDd2 control), cis-inhibition, PfCRT3D7
[15] = read-out: PfCRT-mediated [3H]CQ transport, cis-inhibition (% PfCRTDd2 control)
[16] = read-out: Uptake of [3H]CQ (% PfCRTDd2 control), cis-inhibition, PfCRTDd2, SEM
[17] = read-out: PfCRT-mediated [3H]CQ transport, cis-inhibition (% PfCRTEcu1110 control)
[18] = read-out: Uptake of [3H]CQ (% PfCRTDd2 control), cis-inhibition, PfCRTEcu1110, SEM
[19] = read-out: Uptake of [3H]CQ (% PfCRTEcu1110 control), cis-inhibition
[20] = read-out: [3H]CQ transport (% PfCRTEcu1110 control), cis-inhibition, PfCRTEcu1110, SEM

NCCCC[C@H](N)C(=O)O [L-lysine]
inhibition at 500 µM (non-expressing oocytes [1]; [11]): 2.9 ± 0.03% | inhibition at 1000 µM (non-expressing oocytes [1]; [11]): 3.3 ± 0.07% | inhibition at 2000 µM (non-expressing oocytes [1]; [11]): 3.3 ± 0.03% | inhibition at 500 µM (non-expressing oocytes [1]; [12]): 101 ± 6.3% | inhibition at 1000 µM (non-expressing oocytes [1]; [12]): 101 ± 3.6% | inhibition at 2000 µM (non-expressing oocytes [1]; [12]): 100 ± 3.6% | inhibition at 500 µM (PfCRT^3D7 [2]; [13]): 100 ± 4.8% | inhibition at 1000 µM (PfCRT^3D7 [2]; [13]): 101 ± 3.7% | inhibition at 2000 µM (PfCRT^3D7 [2]; [13]): 100 ± 4.7% | inhibition at 500 µM (PfCRT^3D7 [2]; [14]): 3.4 ± 0.07% | inhibition at 1000 µM (PfCRT^3D7 [2]; [14]): 3.3 ± 0.03% | inhibition at 2000 µM (PfCRT^3D7 [2]; [14]): 3.1 ± 0.07% | inhibition at 500 µM (PfCRT^Dd2 [3]; [15]): 93 ± 5.2% | inhibition at 1000 µM (PfCRT^Dd2 [3]; [15]): 99 ± 3.6% | inhibition at 2000 µM (PfCRT^Dd2 [3]; [15]): 95 ± 4.1% | inhibition at 500 µM (PfCRT^Dd2 [3]; [16]): 96 ± 3.1% | inhibition at 1000 µM (PfCRT^Dd2 [3]; [16]): 100 ± 2.8% | inhibition at 2000 µM (PfCRT^Dd2 [3]; [16]): 97 ± 3.2% | inhibition at 500 µM (PfCRT^Ecu1110 [4]; [17]): 93 ± 6.7% | inhibition at 1000 µM (PfCRT^Ecu1110 [4]; [17]): 97 ± 5.2% | inhibition at 2000 µM (PfCRT^Ecu1110 [4]; [17]): 96 ± 4.1% | inhibition at 500 µM (PfCRT^Ecu1110 [4]; [18]): 31 ± 1.9% | inhibition at 1000 µM (PfCRT^Ecu1110 [4]; [18]): 32 ± 1.8% | inhibition at 2000 µM (PfCRT^Ecu1110 [4]; [18]): 32 ± 1% | inhibition at 500 µM (PfCRT^Ecu1110 [4]; [19]): 95 ± 3.6% | inhibition at 1000 µM (PfCRT^Ecu1110 [4]; [19]): 99 ± 4.6% | inhibition at 2000 µM (PfCRT^Ecu1110 [4]; [19]): 98 ± 3.2% | inhibition at 500 µM (PfCRT^Ecu1110 [4]; [20]): 28 ± 1.6% | inhibition at 1000 µM (PfCRT^Ecu1110 [4]; [20]): 29 ± 0.2% | inhibition at 2000 µM (PfCRT^Ecu1110 [4]; [20]): 29 ± 0.2% | Uptake of [3H]CQ (% non-expressing oocyte control), trans-stimulation (non-expressing oocytes [5]; [test solute]i = 5 mM): 101 ± 3.2 % non-expressing oocyte control | Uptake of [3H]CQ (% non-expressing oocyte control), trans-stimulation (non-expressing oocytes [5]; [test solute]i = 45 mM (30 mM for some solutes due to solubility)): 99 ± 3.2 % non-expressing oocyte control | Uptake of [3H]CQ (% PfCRTDd2 control), trans-stimulation, non-expressing oocytes (non-expressing oocytes [5]; [test solute]i = 5 mM (intracellular)): 2.3 ± 0.03 % PfCRTDd2 control | Uptake of [3H]CQ (% PfCRTDd2 control), trans-stimulation, non-expressing oocytes (non-expressing oocytes [5]; [test solute]i = 45 mM (intracellular; 30 mM for some solutes due to solubility)): 3.3 ± 0.03 % PfCRTDd2 control | activity at 5000 µM (PfCRT^3D7 [6]; PfCRT3D7 oocytes, [test solute]i = 5 mM, total [3H]CQ transport, normalised to the oocyte type control, read-out: Uptake of [3H]CQ (% PfCRT3D7 control), trans-stimulation): 99 ± 3.7% | [3H]CQ transport (% PfCRT3D7 control), trans-stimulation, PfCRT3D7 (PfCRT^3D7 [6]; SEM): 0.3 ± 0.02 % PfCRT3D7 control | activity at 5000 µM (PfCRT^3D7 [6]; [test solute]i = 5 mM (intracellular), PfCRT3D7 oocytes, normalised to oocyte type control, read-out: PfCRT-mediated [3H]CQ transport, trans-stimulation (% PfCRT3D7 control)): 97 ± 2% | activity at 45000 µM (PfCRT^3D7 [6]; SEM, read-out: Uptake of [3H]CQ (% PfCRTDd2 control), trans-stimulation, PfCRT3D7): 3.3 ± 0.06% | activity at 45000 µM (PfCRT^3D7 [6]; read-out: PfCRT-mediated [3H]CQ transport, trans-stimulation (% PfCRT3D7 control)): 96 ± 1.9% | activity at 45000 µM (PfCRT^3D7 [6]; read-out: Uptake of [3H]CQ (% PfCRT3D7 control), trans-stimulation): 98 ± 2.4% | activity at 5000 µM (PfCRT^3D7 [6]; total [3H]CQ transport, [test solute]i = 5 mM (intracellular), mean ± SEM, SEM, read-out: Uptake of [3H]CQ (% PfCRTDd2 control), trans-stimulation, PfCRT3D7): 3.3 ± 0.05% | activity at 5000 µM (PfCRT^Dd2 [7]; pH 5.5, read-out: PfCRT-mediated [3H]CQ transport, trans-stimulation (% PfCRTDd2 control), [test solute]i = 5 mM (intracellular), PfCRTDd2 oocytes, normalised to oocyte type control): 97 ± 3.4% | activity at 5000 µM (PfCRT^Dd2 [7]; pH 5.5, read-out: Uptake of [3H]CQ (% PfCRTDd2 control), trans-stimulation, PfCRTDd2, total [3H]CQ transport, [test solute]i = 5 mM (intracellular), mean ± SEM, SEM): 99 ± 2.4% | activity at 5000 µM (PfCRT^Dd2 [7]; pH 5.5, read-out: Uptake of [3H]CQ (% PfCRTDd2 control), trans-stimulation, PfCRTDd2 oocytes, [test solute]i = 5 mM, total [3H]CQ transport, normalised to the oocyte type control): 99 ± 2.4% | activity at 45000 µM (PfCRT^Dd2 [7]; pH 5.5, read-out: Uptake of [3H]CQ (% PfCRTDd2 control), trans-stimulation, PfCRTDd2 oocytes, total [3H]CQ transport, normalised to the oocyte type control): 97 ± 3.2% | activity at 5000 µM (PfCRT^Dd2 [7]; pH 5.5, read-out: [3H]CQ transport (% PfCRTDd2 control), trans-stimulation, PfCRTDd2, trans-stimulation, [test solute]i = 5 mM (injected), PfCRT-mediated component (background subtracted), mean ± SEM, SEM): 97 ± 3.4% | activity at 45000 µM (PfCRT^Dd2 [7]; pH 5.5, read-out: [3H]CQ transport (% PfCRTDd2 control), trans-stimulation, PfCRTDd2, trans-stimulation, PfCRT-mediated component (background subtracted), mean ± SEM, SEM): 95 ± 4.5% | activity at 5000 µM (PfCRT^Ecu1110 [8]; pH 5.5, read-out: PfCRT-mediated [3H]CQ transport, trans-stimulation (% PfCRTEcu1110 control), [test solute]i = 5 mM (intracellular), PfCRTEcu1110 oocytes, normalised to oocyte type control): 95 ± 3.8% | activity at 5000 µM (PfCRT^Ecu1110 [8]; pH 5.5, read-out: Uptake of [3H]CQ (% PfCRTEcu1110 control), trans-stimulation, PfCRTEcu1110 oocytes, [test solute]i = 5 mM, total [3H]CQ transport, normalised to the oocyte type control): 97 ± 4.4% | activity at 45000 µM (PfCRT^Ecu1110 [8]; pH 5.5, read-out: Uptake of [3H]CQ (% PfCRTEcu1110 control), trans-stimulation, PfCRTEcu1110 oocytes, [test solute]i = 45 mM (30 mM for some solutes due to solubility), total [3H]CQ transport, normalised to the oocyte type control): 99 ± 4.2% | activity at 5000 µM (PfCRT^Ecu1110 [8]; read-out: Uptake of [3H]CQ (% PfCRTDd2 control), trans-stimulation, PfCRTEcu1110, total [3H]CQ transport, [test solute]i = 5 mM (intracellular), mean ± SEM, SEM): 35 ± 1.8% | activity at 45000 µM (PfCRT^Ecu1110 [8]; read-out: Uptake of [3H]CQ (% PfCRTDd2 control), trans-stimulation, PfCRTEcu1110, total [3H]CQ transport, [test solute]i = 45 mM (intracellular; 30 mM for some solutes due to solubility), mean ± SEM, SEM): 35 ± 1.6% | activity at 5000 µM (PfNT1; PfNT1 oocytes, [test solute]i = 5 mM, normalised to the oocyte type control, read-out: Uptake of [3H]CQ (% PfNT1 control), trans-stimulation): 100 ± 3.6% | activity at 45000 µM (PfNT1; SEM, read-out: Uptake of [3H]CQ (% PfCRTDd2 control), trans-stimulation, PfNT1): 2.8 ± 0.05% | activity at 45000 µM (PfNT1; read-out: Uptake of [3H]CQ (% PfNT1 control), trans-stimulation): 99 ± 3.7% | activity at 5000 µM (PfNT1; [test solute]i = 5 mM (intracellular), mean ± SEM, SEM, read-out: Uptake of [3H]CQ (% PfCRTDd2 control), trans-stimulation, PfNT1): 2.1 ± 0.01% | Compounds that have been tested as potential co-substrates but are not required for influx of VF-6 via PfCRT into the oocyte (PfCRT [9]): X | Tested as potential co-substrate but not required for influx of VF-6 via PfCRT into the oocyte (PfCRT [10]): X
